# Target: T1, GST-MCAK fusion protein (Homo sapiens, UniProt Q99661)
# T1 construct: The GST-MCAK fusion protein was purchased Cytoskeleton (cat. #MK01); fused on or other part: GST tag (N-terminal, by the vendor's product)
# Assay: MCAK ATPase in vitro assay
# Format: biochemical
# Details: GST-MCAK 100 nM, 1 mM sodium ATP, 2 μM microtubules, RT 50 min, 5% DMSO
# Method: V. MCAK ATPase in Vitro Assay
# Reagents: The GST-MCAK fusion protein was purchased Cytoskeleton (cat. #MK01). Tubulin from bovine brain was purchased from Cytoskeleton (HTS-grade), BSA from Sigma (cat. # 3059). chloramphenicol from Boehringer Mannheim (cat. # 634433), ampicillin from Fisher Biotech (cat. # BP1760-25) and Paclitaxel from Cytoskeleton (cat. # TXD01)
# Microtubule preparation: For the preparation of microtubules, purified tubulin (>97% MAP-free) at 1 mg/ml was polymerized at 37° C. in the presence of 10 μM paclitaxel, 1 mM DTT, 1 mM GTP in BRB80 buffer (80 mM K-PIPES, 1 mM EGTA, 1 mM MgCl2 at pH 6.8). The resulting microtubules were separated from non-polymerized tubulin by ultracentrifugation and removal of the supernatant. The pellet, containing the microtubules, was gently resuspended in 1×BRB 80 containing 10 μM paclitaxel, 1 mM DTT, 50 μg/ml ampicillin, 5 μg/ml chloramphenicol in BRB80.
# MCAK ATPase assay: GST-MCAK at 100 nM was incubated with 1 mM sodium ATP, 2 μM microtubules with 2 μM paclitaxel (concentration refers to tubulin dimers), and inhibitor at RT for 50 min in reaction buffer (80 mM K-PIPES, 1 mM K-EGTA, 2 mM MgCl2, 1 mM DTT, and 100 μg/ml BSA, pH 6.9). Compounds were dissolved in DMSO, and the final DMSO concentration in the reaction was 5%. The reaction was terminated with a 2-fold dilution of the reaction with 2× stop buffer (50 mM EDTA/1.8 M KCl). The free phosphate from the ATP hydrolysis reaction was measured via a quinaldine red/ammonium molybdate assay by adding 1.5 volumes of quench C within 24 hrs of addition of stop buffer. (Cogan, E. B., Birrell, G. B., Griffith, O. H. (1999) Analytical Biochemistry 271, p 29). Quench C was prepared by adding 1 volume of quench B (12.3 mM ammonium molybdate tetrahydrate in 1.15 M sulfuric acid) to 2 volumes of quench A (0.1 mg/ml quinaldine red, 0.14% polyvinyl alcohol). The plate was incubated for 5 min at room temperature, and the absorbance of the phosphomolybdate complex was measured at 540 nm.
# T1 sequence (Q99661 258-588 limits assumed): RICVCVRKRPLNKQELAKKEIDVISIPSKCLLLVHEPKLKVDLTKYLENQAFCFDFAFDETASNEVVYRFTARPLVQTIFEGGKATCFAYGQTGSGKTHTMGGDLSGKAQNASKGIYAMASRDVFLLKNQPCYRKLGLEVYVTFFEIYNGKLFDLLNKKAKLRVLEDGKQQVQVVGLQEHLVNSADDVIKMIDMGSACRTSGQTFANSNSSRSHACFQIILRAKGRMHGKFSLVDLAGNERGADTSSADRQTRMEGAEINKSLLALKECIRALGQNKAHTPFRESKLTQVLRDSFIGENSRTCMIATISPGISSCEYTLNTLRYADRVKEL
row,SMILES,IC50 [µM]
1,"CC(c1ccccc1)c1nc(-c2ccc([N+](=O)[O-])cc2)cs1 (centres unmarked) [Compound 1-5, 4-(4-nitrophenyl)-2-(1-phenylethyl)-1,3-thiazole]",≤ 50
2,"c1ccc(C2(c3nc(-c4cccnc4)cs3)CC2)cc1 [Compound 1-10, 3-[2-(1-phenylcyclopropyl)-1,3-thiazol-4-yl]pyridine]",≤ 50
3,"N#Cc1ccc(-c2csc(C3(c4c(F)cccc4F)CC3)n2)cc1 [Compound 1-15, 4-{2-[1-(2,6-difluorophenyl)cyclopropyl]-1,3-thiazol-4-yl}benzonitrile]",≤ 50
4,"N#Cc1ccc(-c2csc(C3(c4ccccc4)CC3)n2)cn1 [Compound 2-2, 5-[2-(1-phenylcyclopropyl)-1,3-thiazol-4-yl]pyridine-2-carbonitrile]",≤ 50
5,"[O-][n+]1ccc(-c2csc(C3(c4ccccc4)CC3)n2)cc1 [Compound 2-3, 4-[2-(1-phenylcyclopropyl)-1,3-thiazol-4-yl]-1lambda~5~pyridin-1-ol]",≤ 50
6,"Oc1ccc(-c2csc(C3(c4ccccc4)CC3)n2)cc1O [Compound 3-2, 4-(3,4-dihydroxyphenyl)-2-(1-phenylcyclopropyl)-1,3-thiazole]",≤ 50
7,"Oc1cnccc1-c1csc(C2(c3ccccc3)CC2)n1 [Compound 3-3, 4-[2-(1-phenylcyclopropyl)-1,3-thiazol-4-yl]pyridin-3-ol]",≤ 50
8,"Oc1ccc(-c2csc(C3(c4ccccc4)CC3)n2)cc1 [Compound 3-4, 4-[2-(1-phenylcyclopropyl)-1,3-thiazol-4-yl]phenol]",≤ 50
9,"Oc1cccc(-c2csc(C3(c4ccccc4)CC3)n2)c1 [Compound 3-5, 3-[2-(1-phenylcyclopropyl)-1,3-thiazol-4-yl]phenol]",≤ 50
10,"OCc1cccc(-c2csc(C3(c4ccccc4)CC3)n2)c1 [Compound 5-1, {3-[2-(1-phenylcyclopropyl)-1,3-thiazol-4-yl]phenyl}methanol]",≤ 50

# Other lines, results leading:
row,IC50 [µM],SMILES
1,≤ 50,"Clc1cccc(C2(c3nc(-c4ccncc4)cs3)CC2)c1 [Compound 9-10, 4-{2-[1-(3-chlorophenyl)cyclopropyl]-1,3-thiazol-4-yl}pyridine]"
2,≤ 50,"Fc1ccccc1C1(c2nc(-c3ccncc3)cs2)CC1 [Compound 9-11, 4-{2-[1-(2-fluorophenyl)cyclopropyl]-1,3-thiazol-4-yl}pyridine]"
3,≤ 50,"Clc1cc(-c2csc(C3(c4ccccc4)CC3)n2)ccn1 [Compound 9-13, 2-chloro-4-[2-(1-phenylcyclopropyl)-1,3-thiazol-4-yl]pyridine]"
4,≤ 50,"Cc1cccc(C2(c3nc(-c4ccncc4)cs3)CC2)c1 [Compound 9-14, 4-{2-[1-(3-methylphenyl)cyclopropyl]-1,3-thiazol-4-yl}pyridine]"
